Laboratory results published in publication PMC4279406, “Simultaneous targeting of PI3Kδ and a PI3Kδ-dependent MEK1/2-Erk1/2 pathway for therapy in pediatric B-cell acute lymphoblastic leukemia” (Oncotarget, 2014).

Columns and labels:
Type in all cases: cell-based, human
Raji cells = experiment: Caspase 3/7 activity assay
Protocol: Simultaneous targeting of PI3Kδ and a PI3Kδ-dependent MEK1/2-Erk1/2 pathway for therapy in pediatric B-cell acute lymphoblastic […]
Cells were treated as indicated conditions and then subjected to lysate to perform standard Western blot as described previously1. Briefly, whole-cell lysates and SDS-loading buffer diluted cell fractions were analyzed on SDS-PAGE gels. Transfer to nitrocellulose membranes, nonfat milk blocking, probing with indicated primary antibodies and the corresponding HRP-conjugated second antibodies.
Chemiluminescence were performed and captured using ImageQuant LAS 4000 (GE healthcare Life Sciences, Piscataway, NJ, USA) and band intensity was measure both with ImageQuant™ TL (GE Healthcare Life Sciences) 2.
Caspase 3/7 activity assay
Raji cells were treated with or without X-370 at 1 μM, 5μM and 10 μM for 24, 48 and 72 hours, thenwere measured using the Caspase-Glo® 3/7 Assay (Promega, US) following the protocol and relative caspase-3/7 activity was normalized to cell number which DMSO control was the base line.
5-bromo-2'-deoxyuridine (BrdU) incorporation Assay
5-bromo-2'-deoxyuridine (BrdU) incorporation was performed using FITC BrdU Flow Kit (BD Pharmingen, San Diego, CA) according to the provided protocol.
Figure S1;. CAL-101 docked to the crystal structure of PI3Kδ. […]

primary B-ALL cells = experiment: Viability of primary mononuclear cells from pediatric patients (CCK-8); conditions: 72 h, 8/13 specimens
From the text: (§1) Figure 3 PI3Kδ inhibition led to blockade of B cell leukemia cells proliferation via induction of cell cycle arrest and apoptosis Raji cells treated with X-370 for indicated times and at serial diluted concentrations were subjected to Annexin V-FITC/PI staining (A) and PI staining (B) and FACS analysis to show cell apoptosis and cell cycle distribution respectively. (C) X-370 inhibited proliferation of human leukemia primary cells. Freshly isolated human primary mononuclear cells from bone marrow samples of patients were treated with X-370 for 72 h and cell viability was assayed using CCK-8 assay. IC50s of each sample were plotted where 10 μM was assigned to specimens with IC50 >10 μM. Each symbol represents an individual patient sample. […]
(§2) Cell viability was assessed using Cell Counting Kit (CCK-8, Dojindo, Japan) following the manufacturer's protocol and OD values were measured with a Spectramax M5 plate reader (Molecular Devices, Sunnyvale, CA)[45].
(§3) Bone marrow was obtained from patients after provision of informed consent using guidelines approved by the Committee on the Use of Human Subjects in Research at Shanghai Jiaotong University or Shanghai Fudan University under a protocol approved by the Review Board. […] Cell viability and phosphorylated Akt and Erk1/2 were then detected.

[1] = system: primary non B-ALL leukemia cells; experiment: as above; conditions: 72 h, 1/7 specimens
From the text: as §1, §2, §3

Question: With O=C(N1CCCC1)N1CCC(n2cnc3c(-n4c(C(F)F)nc5ccccc54)nc(N4CCOCC4)nc32)CC1 [X-370] as the compound, how does the “concentration at which caspase 3/7 activity increased” value (Raji cells) read?
Answer: ≥ 5 µM

Question: What about the “B-ALL specimens sensitive with IC50<1 μM” value (primary B-ALL cells) of the same compound?
Answer: 61%

Question: What about the “non B-ALL specimens sensitive with IC50<1 μM” value [1] of the same compound?
Answer: 14%
